Measured values: ChEMBL document CHEMBL1201862, “PubChem BioAssay data set” (2004)
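Growth conditions: 96-well plates. Treatment: test compound, 48 hours, 5 concentrations. Analysis: linear interpolation between bracketing concentrations; unreached endpoints set to highest concentration. GI50 marks 50% less growth.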 Activity calls are given as the source filed them. Rule as the data show it: active = GI50 up to about 1.1 µM and inactive = higher.

Legend:
Assay in all cases: growth of human tumour cells (NCI), 48 h
A549 = test system: A549
BT-549 = test system: BT-549
HCC 2998 = test system: HCC 2998
HCT-116 = test system: HCT-116
HCT-15 = test system: HCT-15
HT-29 = test system: HT-29
K562 = test system: K562
LOX IMVI = test system: LOX IMVI
MDA-MB-231 = test system: MDA-MB-231
NCI-H226 = test system: NCI-H226
NCI-H23 = test system: NCI-H23
NCI-H460 = test system: NCI-H460
NCI-H522 = test system: NCI-H522
SF-539 = test system: SF-539
SK-MEL-5 = test system: SK-MEL-5
SN12C = test system: SN12C
T47D = test system: T47D
UO-31 = test system: UO-31
HOP-92 = test system: HOP-92

SMILES | GI50 (A549) | GI50 (BT-549) | GI50 (HCC 2998) | GI50 (HCT-116) | GI50 (HCT-15) | GI50 (HT-29) | GI50 (K562) | GI50 (LOX IMVI) | GI50 (MDA-MB-231) | GI50 (NCI-H226) | GI50 (NCI-H23) | GI50 (NCI-H460) | GI50 (NCI-H522) | GI50 (SF-539) | GI50 (SK-MEL-5) | GI50 (SN12C) | GI50 (T47D) | GI50 (UO-31) | GI50 (HOP-92)
CC(=O)c1c(=O)n(-c2ccc(C)cc2)c(O)c2c(N)n[nH]c12 | > 100 µM (inactive) | > 100 µM (inactive) | > 100 µM (inactive) | > 100 µM (inactive) | > 100 µM | > 100 µM (inactive) | > 100 µM (inactive) | > 100 µM (inactive) | > 100 µM (inactive) | > 100 µM (inactive) | > 100 µM (inactive) | > 100 µM (inactive) | > 100 µM (inactive) | > 100 µM (inactive) | > 100 µM (inactive) | > 100 µM (inactive) | > 100 µM (inactive) | 60 µM (inactive) | 
CCOC(=O)c1nc2cc(F)cc(F)c2[nH]c1=O | > 100 µM (inactive) | > 100 µM (inactive) | > 100 µM (inactive) | > 100 µM (inactive) | > 100 µM | > 100 µM (inactive) | > 100 µM (inactive) | > 100 µM (inactive) | > 100 µM (inactive) | > 100 µM (inactive) | > 100 µM (inactive) | > 100 µM (inactive) |  | > 100 µM (inactive) | > 100 µM (inactive) | > 100 µM (inactive) | > 100 µM (inactive) | 72.8 µM (inactive) | > 100 µM (inactive)
CCC1OC2C(CC=C(C)C)=C3OC(C)(O)C(C)(CC)C(O)C3=C3OC(=O)C=C1C32 (centres undefined) | 37.6 µM (inactive) | 23 µM (inactive) | 27 µM (inactive) | 26.6 µM (inactive) | 33 µM |  | 10.8 µM (inactive) | 12.4 µM (inactive) | 19 µM (inactive) | 55.1 µM (inactive) | 21.6 µM (inactive) | 21.4 µM (inactive) |  | 15.8 µM (inactive) | 28.4 µM (inactive) |  | 29 µM (inactive) | 25.4 µM (inactive) | 17.3 µM (inactive)
CN(NC(=O)/C(=C/C=C/c1ccccc1)NC(=O)c1ccccc1)C1=C(Cl)C(=O)[N+](c2ccccc2)=CC1 | 26.3 µM (inactive) | 22.5 µM (inactive) |  | 20.1 µM (inactive) | 24.2 µM | 29.2 µM (inactive) | 19.9 µM (inactive) | 17.3 µM (inactive) | 18.4 µM (inactive) | 17.9 µM (inactive) | 35.4 µM (inactive) | 37.6 µM (inactive) | 23.3 µM (inactive) | 19.7 µM (inactive) | 14.4 µM (inactive) | 24.8 µM (inactive) | 15.7 µM (inactive) | 26.5 µM (inactive) | 20.5 µM (inactive)
CC1=NN(c2nc(N)nc(CC#N)n2)C(C)(C)C1 |  | > 100 µM (inactive) | > 100 µM (inactive) | > 100 µM (inactive) | > 100 µM | > 100 µM (inactive) | > 100 µM (inactive) | > 100 µM (inactive) | > 100 µM (inactive) | > 100 µM (inactive) | > 100 µM (inactive) | > 100 µM (inactive) |  | > 100 µM (inactive) | > 100 µM (inactive) |  | > 100 µM (inactive) | > 100 µM (inactive) | > 100 µM (inactive)
O=C(O)c1ccccc1.[Ag] | 6.81 µM (inactive) | 27.2 µM (inactive) | 19.2 µM (inactive) | 6.32 µM (inactive) | 21.6 µM | 20 µM (inactive) | 3.2 µM (inactive) | 11.1 µM (inactive) |  | > 100 µM (inactive) | 22.6 µM (inactive) | 11.1 µM (inactive) | 1.5 µM (inactive) | 21.3 µM (inactive) | 4.73 µM (inactive) | 23 µM (inactive) | 2.46 µM (inactive) | 2.13 µM (inactive) | 21.7 µM (inactive)
CCOC(=O)Cn1c(=O)ccn(COCCO)c1=O | > 100 µM (inactive) | > 100 µM (inactive) | > 100 µM (inactive) |  | > 100 µM | > 100 µM (inactive) | > 100 µM (inactive) | > 100 µM (inactive) | > 100 µM (inactive) |  | > 100 µM (inactive) | > 100 µM (inactive) | > 100 µM (inactive) | > 100 µM (inactive) | > 100 µM (inactive) | > 100 µM (inactive) | > 100 µM (inactive) | > 100 µM (inactive) | > 100 µM (inactive)
O=CNC(Cc1c[nH]cn1)C(=O)O (centres undefined) | > 100 µM (inactive) | > 100 µM (inactive) |  | > 100 µM (inactive) | > 100 µM | > 100 µM (inactive) | > 100 µM (inactive) | > 100 µM (inactive) | > 100 µM (inactive) | > 100 µM (inactive) | > 100 µM (inactive) | > 100 µM (inactive) | > 100 µM (inactive) | > 100 µM (inactive) | > 100 µM (inactive) | > 100 µM (inactive) | > 100 µM (inactive) | > 100 µM (inactive) | > 100 µM (inactive)
